Values quoted from earlier work as cited in US7705000B2, “Oral suspension comprising meloxicam” (Janssen Pharmaceutica N.V., priority 2004, dated 2010).

Conditions: at a pH of 4

For `Cc1cnc(NC(=O)C2=C(O)c3ccccc3S(=O)(=O)N2C)s1` [meloxicam, 4-hydroxy-2-methyl-N-(5-methyl-2-thiazolyl)-2H-1,2-benzo-thiazine-3-carboxamide-1,1-dioxide], the solubility of meloxicam is listed as 0.5 µg/mL.
